In assay [1] the test system is Rattus norvegicus. The assay can be described thus: Selectivity for mesolimbic over nigrostriatal dopamine system in rat brain as ventral tegmental area infusion of muscimol induced locomotor activity (LMA) by sc dose. Type of assay: functional.
Assay [2] has as its target 5-hydroxytryptamine receptor 2A (Bos taurus) (UniProt Q75Z89). In words: Binding affinity towards 5-hydroxytryptamine 2 receptor.
Assay [3] relates to Rattus norvegicus. The assay can be described thus: Selectivity for mesolimbic over nigrostriatal dopamine system in rat brain as substania nigra zona reticulata infusion of muscimol-induced locomotor activity (LMA) by sc dose. The assay is classed as functional.
Assay [4] deals with D(3) dopamine receptor (Homo sapiens, UniProt P35462). In words: biochemical.
Assay [5] concerns the target Adrenergic receptor alpha-1 (Homo sapiens) (UniProt P35348+P25100+P35368). In words: Binding affinity towards Alpha-1 adrenergic receptor. The assay is classed as protein assay.
Assay [6] deals with T1, 5-hydroxytryptamine receptor 1A (Rattus norvegicus, UniProt P19327).
T1 sequence (P19327 whole entry): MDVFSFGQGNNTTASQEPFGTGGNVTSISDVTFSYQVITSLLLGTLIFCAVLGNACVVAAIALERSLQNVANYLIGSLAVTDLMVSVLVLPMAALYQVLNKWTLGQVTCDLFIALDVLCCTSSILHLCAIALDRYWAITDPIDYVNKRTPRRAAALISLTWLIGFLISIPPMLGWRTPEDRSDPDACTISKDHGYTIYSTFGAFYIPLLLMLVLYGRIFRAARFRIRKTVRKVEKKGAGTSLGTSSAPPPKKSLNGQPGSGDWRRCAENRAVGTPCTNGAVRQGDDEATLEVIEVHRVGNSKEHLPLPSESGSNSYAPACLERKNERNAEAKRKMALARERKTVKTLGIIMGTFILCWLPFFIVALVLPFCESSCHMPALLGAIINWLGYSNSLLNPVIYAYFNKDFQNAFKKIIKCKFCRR
In words: Binding affinity towards 5-hydroxytryptamine 1A receptor using [3H]8-OH-DPAT in rat hippocampus. The assay is classed as tissue-based.

The target in assay [7] is T2, D(4) dopamine receptor (Homo sapiens, UniProt P21917).
T2 sequence (P21917 whole entry): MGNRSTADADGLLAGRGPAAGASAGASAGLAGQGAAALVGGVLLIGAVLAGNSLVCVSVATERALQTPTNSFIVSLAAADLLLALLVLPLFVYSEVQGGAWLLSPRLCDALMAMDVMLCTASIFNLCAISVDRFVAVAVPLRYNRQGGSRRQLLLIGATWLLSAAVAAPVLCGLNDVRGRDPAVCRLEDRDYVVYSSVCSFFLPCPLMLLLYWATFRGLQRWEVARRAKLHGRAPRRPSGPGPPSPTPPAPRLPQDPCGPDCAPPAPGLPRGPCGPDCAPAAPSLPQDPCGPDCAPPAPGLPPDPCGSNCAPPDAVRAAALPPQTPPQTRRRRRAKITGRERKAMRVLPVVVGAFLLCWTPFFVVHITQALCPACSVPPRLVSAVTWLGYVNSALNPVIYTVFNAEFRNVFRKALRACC
The assay can be described thus: Binding affinity towards Dopamine D4 receptor.

In assay [8] the target is D(2) dopamine receptor (Homo sapiens, UniProt P14416).
Assay [9] deals with D(1A) dopamine receptor (Rattus norvegicus, UniProt P18901). In words: Binding affinity towards D1 receptor using [3H]-SCH- 23390 in rat striatal tissue. The assay is classed as tissue-based, Striatum.
Assay [10] concerns the target Serotonin 3 (5-HT3) receptor. The assay can be described thus: Binding affinity towards 5-hydroxytryptamine 3 receptor. Type of assay: protein-complex assay.
Assay [11] has as its target T3, Adrenergic receptor alpha-1 (Rattus norvegicus, UniProt P15823+P23944+P43140).
T3 sequence (P15823 whole entry): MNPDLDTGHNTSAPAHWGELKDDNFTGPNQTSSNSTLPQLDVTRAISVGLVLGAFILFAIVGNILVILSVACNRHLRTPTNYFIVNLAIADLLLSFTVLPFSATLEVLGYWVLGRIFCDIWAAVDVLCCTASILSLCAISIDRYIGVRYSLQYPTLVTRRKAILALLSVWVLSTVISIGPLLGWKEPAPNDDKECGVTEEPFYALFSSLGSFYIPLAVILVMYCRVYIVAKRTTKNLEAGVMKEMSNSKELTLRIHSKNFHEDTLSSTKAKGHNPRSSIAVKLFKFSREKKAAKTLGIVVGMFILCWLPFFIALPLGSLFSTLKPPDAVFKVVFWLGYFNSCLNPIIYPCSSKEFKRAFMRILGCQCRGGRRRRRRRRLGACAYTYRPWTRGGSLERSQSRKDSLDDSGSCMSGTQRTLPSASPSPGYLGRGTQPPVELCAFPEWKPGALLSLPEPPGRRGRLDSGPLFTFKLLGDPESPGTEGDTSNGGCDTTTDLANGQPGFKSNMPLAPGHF
T3 sequence (P23944 whole entry): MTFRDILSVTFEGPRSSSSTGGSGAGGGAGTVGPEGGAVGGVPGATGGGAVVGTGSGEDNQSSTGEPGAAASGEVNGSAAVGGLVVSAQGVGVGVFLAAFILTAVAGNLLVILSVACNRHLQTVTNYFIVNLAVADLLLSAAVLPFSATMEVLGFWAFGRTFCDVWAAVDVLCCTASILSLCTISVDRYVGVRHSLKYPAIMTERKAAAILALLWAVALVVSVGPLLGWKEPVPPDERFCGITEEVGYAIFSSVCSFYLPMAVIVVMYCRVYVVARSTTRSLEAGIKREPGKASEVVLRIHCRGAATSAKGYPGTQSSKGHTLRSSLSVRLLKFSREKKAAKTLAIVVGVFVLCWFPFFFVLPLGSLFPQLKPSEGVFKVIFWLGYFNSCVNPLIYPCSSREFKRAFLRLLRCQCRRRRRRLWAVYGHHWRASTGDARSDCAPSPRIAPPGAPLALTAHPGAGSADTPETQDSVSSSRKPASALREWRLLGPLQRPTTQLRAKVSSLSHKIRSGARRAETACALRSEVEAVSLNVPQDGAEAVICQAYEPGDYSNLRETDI
T3 sequence (P43140 whole entry): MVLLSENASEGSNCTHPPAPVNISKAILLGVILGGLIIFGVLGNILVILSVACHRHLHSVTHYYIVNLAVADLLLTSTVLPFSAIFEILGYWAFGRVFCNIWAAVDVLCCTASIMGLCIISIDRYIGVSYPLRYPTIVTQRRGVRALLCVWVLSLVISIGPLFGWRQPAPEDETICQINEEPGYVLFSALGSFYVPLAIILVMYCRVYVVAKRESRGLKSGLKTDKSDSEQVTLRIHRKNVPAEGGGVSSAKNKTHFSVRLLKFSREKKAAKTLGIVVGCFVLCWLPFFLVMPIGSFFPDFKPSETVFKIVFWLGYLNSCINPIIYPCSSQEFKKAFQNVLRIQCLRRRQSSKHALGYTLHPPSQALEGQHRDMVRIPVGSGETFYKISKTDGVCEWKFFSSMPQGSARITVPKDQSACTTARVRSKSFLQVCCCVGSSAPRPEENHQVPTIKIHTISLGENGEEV
The assay can be described thus: Binding affinity towards Alpha-1 adrenergic receptor using [3H]prazosin in rat heart.

Assay [12] deals with T3, Adrenergic receptor alpha-1. In words: Compound was evaluated for binding affinity towards Alpha-1 adrenergic receptor using [3H]prazosin in rat heart.
For assay [13], the target named is T2, D(4) dopamine receptor. In words: Binding affinity towards Chinese hamster ovary cells transfected with human D4 receptor using [3H]spiperone. The assay is classed as cell-based.

The text below walks through data of ChEMBL document CHEMBL1128113, “A novel series of arylpiperazines with high affinity and selectivity for the dopamine D3 receptor” (Bioorg Med Chem Lett, 1995).

The ED50 is the dose that gives a 50% effect, or the effect in half of the subjects. Read a low ED50 as greater potency. As usually defined, the pKB is −log10 of the KB, conventionally taken in molar units. Read a low pKB as a large KB. The term Ki denotes the dissociation constant of the complex between target and ligand, obtained from inhibition or displacement. A high value points to lower affinity.

SMILES strings stand for the structures.

Chain of D(2) dopamine receptor (P14416 whole entry): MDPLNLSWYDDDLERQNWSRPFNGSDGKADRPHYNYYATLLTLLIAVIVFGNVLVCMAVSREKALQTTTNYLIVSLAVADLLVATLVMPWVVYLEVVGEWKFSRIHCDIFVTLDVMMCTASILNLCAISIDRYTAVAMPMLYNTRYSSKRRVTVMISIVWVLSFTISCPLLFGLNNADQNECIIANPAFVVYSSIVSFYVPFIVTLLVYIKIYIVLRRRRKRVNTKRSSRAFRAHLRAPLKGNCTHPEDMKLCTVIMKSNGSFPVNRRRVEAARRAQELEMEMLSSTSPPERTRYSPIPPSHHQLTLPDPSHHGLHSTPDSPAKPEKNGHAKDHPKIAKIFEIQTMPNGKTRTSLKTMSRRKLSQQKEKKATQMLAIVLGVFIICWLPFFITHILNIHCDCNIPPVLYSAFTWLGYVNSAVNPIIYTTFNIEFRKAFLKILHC
Chain of D(3) dopamine receptor (P35462 whole entry): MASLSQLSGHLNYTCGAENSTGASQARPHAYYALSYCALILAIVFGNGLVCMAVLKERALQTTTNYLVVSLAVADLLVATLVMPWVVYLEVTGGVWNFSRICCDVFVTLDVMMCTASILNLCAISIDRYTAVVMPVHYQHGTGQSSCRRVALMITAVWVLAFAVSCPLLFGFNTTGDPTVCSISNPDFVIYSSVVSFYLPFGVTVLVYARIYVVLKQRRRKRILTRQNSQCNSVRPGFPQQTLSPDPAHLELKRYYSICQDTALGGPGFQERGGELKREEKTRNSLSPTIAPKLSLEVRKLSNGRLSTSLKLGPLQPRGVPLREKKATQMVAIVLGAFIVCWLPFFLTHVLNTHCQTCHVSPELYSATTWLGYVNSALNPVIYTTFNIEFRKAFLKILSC
Chain of D(1A) dopamine receptor (P18901 whole entry): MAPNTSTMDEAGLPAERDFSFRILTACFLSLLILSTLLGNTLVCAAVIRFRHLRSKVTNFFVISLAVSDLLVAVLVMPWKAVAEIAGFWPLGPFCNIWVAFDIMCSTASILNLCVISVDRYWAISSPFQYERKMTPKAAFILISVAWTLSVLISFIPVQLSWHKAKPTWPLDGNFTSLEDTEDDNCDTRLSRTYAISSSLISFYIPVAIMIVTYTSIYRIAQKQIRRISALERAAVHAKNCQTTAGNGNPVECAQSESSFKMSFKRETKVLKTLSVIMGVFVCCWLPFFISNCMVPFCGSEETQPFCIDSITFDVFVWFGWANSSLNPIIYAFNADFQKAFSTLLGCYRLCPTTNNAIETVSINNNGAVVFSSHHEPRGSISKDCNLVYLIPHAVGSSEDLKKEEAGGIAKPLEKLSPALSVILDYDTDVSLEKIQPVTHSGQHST
Chain of 5-hydroxytryptamine receptor 2A (Bos taurus) (Q75Z89 whole entry, the tested form may be a part): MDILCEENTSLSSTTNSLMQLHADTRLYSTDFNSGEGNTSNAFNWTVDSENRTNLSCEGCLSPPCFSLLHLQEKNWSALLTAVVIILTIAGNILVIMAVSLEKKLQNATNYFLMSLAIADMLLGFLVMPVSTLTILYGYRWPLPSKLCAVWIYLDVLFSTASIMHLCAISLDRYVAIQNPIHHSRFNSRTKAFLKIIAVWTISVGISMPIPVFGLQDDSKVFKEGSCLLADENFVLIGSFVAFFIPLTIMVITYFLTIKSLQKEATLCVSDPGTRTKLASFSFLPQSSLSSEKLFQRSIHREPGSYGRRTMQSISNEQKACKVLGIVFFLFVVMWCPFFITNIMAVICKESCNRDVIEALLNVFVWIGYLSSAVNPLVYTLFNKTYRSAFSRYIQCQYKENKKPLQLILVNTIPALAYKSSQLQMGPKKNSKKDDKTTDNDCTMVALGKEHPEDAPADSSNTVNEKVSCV

For the compound `CN1CCN(C2=Nc3cc(Cl)ccc3Nc3ccccc32)CC1` [CLOZAPINE], the ED50 in [1] amounted to 0.002 mg/kg.
With `COc1ccccc1N1CCN(CCCCNC(=O)c2ccc(-c3ccc(C(C)=O)cc3)cc2)CC1`, the pKB in assay [2] was below 5; in assay [5], 7.8. The ED50 in assay [3] is above 10 mg/kg; in assay [1], 0.3 mg/kg. For the same compound, the Ki was 0.000316 µM in assay [4]; 0.00316 µM in [6]; 0.0631 µM in assay [7]; 0.0398 µM in [8]; 0.398 µM in assay [9]. Moreover, the Log Ki in assay [10] was above -5; in assay [11] it was -7.9.
Consider `COc1ccc(OC)c(N2CCN(CCCCNC(=O)c3ccc(Br)cc3)CC2)c1`, for which the inhibition constant (Ki) in [4] is 0.00316 µM; in assay [6], 0.251 µM; in [8], 0.1 µM. In addition, the “Log Ki” value in assay [12] is reported as -7.5.
On to `COc1ccccc1N1CCN(CCCCNC(=O)c2ccc(Br)cc2)CC1`, for which the Ki in assay [4] is 0.000501 µM; in [13], 0.0501 µM; in assay [6], 0.0126 µM; in [8], 0.0398 µM; in [9] it was 0.501 µM. The “Log Ki” value in assay [12] is -7.9.
In the case of `COc1ccccc1N1CCN(CCCCNC(=O)c2ccc(-c3ccc(S(C)(=O)=O)cc3)cc2)CC1`, the Ki was 0.000316 µM in [4], 0.02 µM in assay [6], 0.0251 µM in assay [8] and 0.158 µM in [9]. Also, in [12], the “Log Ki” value was -7.9.
The like results for `COc1ccccc1N1CCN(CCCCNC(=O)c2ccc(-c3ccc(N)cc3)cc2)CC1` were, in that order, 0.0002 µM, 0.0126 µM, 0.02 µM, 0.1 µM and -8.
For `O=C(CCCN1CCC(O)(c2ccc(Cl)cc2)CC1)c1ccc(F)cc1` [HALOPERIDOL], the median effective dose (ED50) in [3] was found to be 0.05 mg/kg.
For the compound `O=C(NCCCCN1CCN(c2ccccc2)CC1)c1ccc(Br)cc1`, the Ki was 0.00631 µM in assay [4], 0.126 µM in [6] and 0.398 µM in assay [8].
